According to PMC3411462, “Long-acting κ opioid antagonists nor-BNI, GNTI and JDTic: pharmacokinetics in mice and lipophilicity” (BMC Pharmacology, 2012):
“And” between values parts separate entries of the source, which are not always exact repeats. Equal entries are not always repeated. Where two headings read alike, the source gives them in different places. Marks after values point to notes of the source that are not given here.

Legend:
[1] = Plasma binding (unbound fraction by ultracentrifugation); assay type: in vitro ADME; settings: 5 μM drug, mean, n = 3
Outline: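 Plasma was spiked with 5 μM drug and ultracentrifuged at 600,000 g for 5 h at 37 °C. The middle water layer and the original spiked matrix were matrix-matched, extracted with acetonitrile and measured by LC-MS-MS. Fraction unbound is the water-layer to spiked-matrix concentration ratio, corrected for dilution.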

[2] = Brain and plasma concentrations in mice after intraperitoneal administration (LC-MS-MS), non-compartmental analysis; assay type: in vivo; settings: for [drug],brain (free base equivalent) / [drug],plasma (free base equivalent): listed as JDTic.2HCl.H2O
[3] = 0.5 h, 10 mg/kg i.p., individual mice, 10 mg/kg
[4] = 1 h, 10 mg/kg i.p., individual mice, 10 mg/kg
[5] = 2 h, 10 mg/kg i.p., individual mice, 10 mg/kg
[6] = 4 h, 10 mg/kg i.p., individual mice, 10 mg/kg
[7] = 24 h, 10 mg/kg i.p., individual mice, 10 mg/kg

CC(C)[C@@H](CN1CC[C@@](C)(c2cccc(O)c2)[C@@H](C)C1)NC(=O)[C@H]1Cc2ccc(O)cc2CN1 [JDTic, (3R)-7-Hydroxy-N-((1S)-1-{[(3R,4R)-4-(3-hydroxyphenyl)-3,4-dimethyl-1-piperidinyl]methyl}-2-methylpropyl)-1,2,3,4-tetrahydro-3-isoquinolinecarboxamide]
fraction unbound at 5 h, 5 μM [1]: 0.19
Time of maximal mean plasma level ([2]; 10 mg kg^-1 i.p., mice): approximately 30 minutes
[drug],brain (free base equivalent) [2, 3]: 66.3 ng/g and 60.3 ng/g and 155 ng/g and 37.5 ng/g and 49.5 ng/g and 57.9 ng/g
[drug],plasma (free base equivalent) [2, 3]: 263 ng/mL and 237 ng/mL and 330 ng/mL and 248 ng/mL and 145 ng/mL
[drug],brain (free base equivalent) [2, 4]: 61.5 ng/g and 45.3 ng/g and 38.1 ng/g and 116 ng/g and 49.2 ng/g and 56.7 ng/g
[drug],plasma (free base equivalent) [2, 4]: 152 ng/mL and 270 ng/mL and 114 ng/mL and 126 ng/mL and 130 ng/mL and 134 ng/mL
[drug],brain (free base equivalent) [2, 5]: 48.3 ng/g and 36.9 ng/g
[drug],plasma (free base equivalent) [2, 5]: 57.3 ng/mL and 71 ng/mL
[drug],brain (free base equivalent) [2, 6]: 80.4 ng/g and 46.2 ng/g
[drug],plasma (free base equivalent) [2, 6]: 69.6 ng/mL and 40.3 ng/mL and 30 ng/mL
[drug],brain (free base equivalent) [2, 7]: 30.3 ng/g and 32.1 ng/g
[drug],plasma (free base equivalent) [2, 7]: <4 ng/mL
[drug],brain (free base equivalent) ([2]; 48 h, 10 mg/kg i.p., individual mice, 10 mg/kg): 936* ng/g and 32.7 ng/g and 16.7 ng/g
[drug],brain (free base equivalent) ([2]; 168 h, 10 mg/kg i.p., individual mice, 10 mg/kg): <12 ng/g (2×) and 43.8 ng/g
Peak unbound brain level ([2]; at 30 minutes, 10 mg kg^-1 i.p., estimate): up to 4 nM
AUMC 0-inf_obs ([2]; brain NCA, 10 mg/kg i.p.): 3158084 ng/ml*h^2
Tlag ([2]; brain NCA, 10 mg/kg i.p.): 0 h
C max,brain ([2]; brain, 10 mg kg^-1 i.p., mice): 71 ng/mL
Decline of mean plasma concentration from peak ([2]; by 24 hours, 10 mg kg^-1 i.p.): at least 98%
concentration at 4 h ([2]; male, Swiss-Webster (Crl:CFW(SW)), mouse, brain, intraperitoneal, 10 mg/kg, 4 h, 10 mg/kg, read-out: Conc (brain, NCA input)): 62.4 ng/mL
concentration at 24 h ([2]; male, Swiss-Webster (Crl:CFW(SW)), mouse, brain, intraperitoneal, 10 mg/kg, 24 h, 10 mg/kg, read-out: Conc (brain, NCA input)): 30.9 ng/mL
concentration at 48 h ([2]; male, Swiss-Webster (Crl:CFW(SW)), mouse, brain, intraperitoneal, 10 mg/kg, 48 h, 10 mg/kg, read-out: Conc (brain, NCA input)): 24.7 ng/mL
concentration at 168 h ([2]; male, Swiss-Webster (Crl:CFW(SW)), mouse, brain, intraperitoneal, 10 mg/kg, 168 h, 10 mg/kg, read-out: Conc (brain, NCA input)): 18.6 ng/mL
concentration at 4 h ([2]; male, Swiss-Webster (Crl:CFW(SW)), mouse, brain, ip, 10 mg/kg, 4 h, 10 mg/kg i.p., individual mice, read-out: [drug],brain (free base equivalent)): 60.6 ng/g
concentration at 4 h ([2]; male, Swiss-Webster (Crl:CFW(SW)), mouse, brain, ip, 10 mg/kg, 4 h, 10 mg/kg i.p., read-out: mean (brain)): 62.4 ng/g
concentration at 24 h ([2]; male, Swiss-Webster (Crl:CFW(SW)), mouse, brain, ip, 10 mg/kg, 24 h, 10 mg/kg i.p., individual mice, read-out: [drug],brain (free base equivalent)): 30.3 ng/g
concentration at 24 h ([2]; male, Swiss-Webster (Crl:CFW(SW)), mouse, brain, ip, 10 mg/kg, 24 h, 10 mg/kg i.p., read-out: mean (brain)): 30.9 ng/g
concentration at 48 h ([2]; male, Swiss-Webster (Crl:CFW(SW)), mouse, brain, ip, 10 mg/kg, 48 h, 10 mg/kg i.p., outlier excluded, read-out: mean (brain)): 24.7 ng/g
concentration at 168 h ([2]; male, Swiss-Webster (Crl:CFW(SW)), mouse, brain, ip, 10 mg/kg, 168 h, 10 mg/kg i.p., <MRC substituted by MRC/2, read-out: mean (brain)): 18.6 ng/g
AUC(0-inf) ([2]; male, Swiss-Webster (Crl:CFW(SW)), mouse, brain, ip, 10 mg/kg, brain NCA, 10 mg/kg i.p., read-out: AUC 0-inf_obs): 10300 ng·h/mL
Kp uu ([2]; male, Swiss-Webster (Crl:CFW(SW)), mouse, brain/plasma (unbound), ip, supplement, 10 mg/kg i.p., read-out: Kp,uu,brain (AUC0–∞,brain,u / AUC0–∞,p,u)): < 1.42
Kp ([2]; male, Swiss-Webster (Crl:CFW(SW)), mouse, brain/plasma, ip, 10 mg/kg, supplement, 10 mg/kg i.p., read-out: Kp,brain (AUC0–∞,brain / AUC0–∞,p)): 11.6
MRT inf ([2]; male, Swiss-Webster (Crl:CFW(SW)), mouse, ip, brain NCA, 10 mg/kg i.p., read-out: MRT 0-inf_obs): 12.8 days
Kp uu ([2]; male, Swiss-Webster, mouse, brain and plasma (unbound), ip, 10 mg kg^-1, 10 mg kg^-1 i.p., mice, read-out: K p,uu,brain (AUC0–∞,brain,u/AUC0–∞,p,u)): ≤ 1.4
Kp uu ([2]; male, Swiss-Webster, mouse, brain and plasma (unbound), ip, 10 mg/kg, 10 mg kg^-1 i.p., mice, read-out: Cmax,brain,u/Cmax,p,u): < 0.04
Kp ([2]; male, Swiss-Webster, mouse, brain and plasma, ip, 10 mg kg^-1, 10 mg kg^-1 i.p., mice, read-out: K p,brain (AUC0–∞,brain/AUC0–∞,p)): 11.6
Kp ([2]; male, Swiss-Webster, mouse, brain and plasma, ip, 10 mg/kg, 10 mg kg^-1 i.p., mice, read-out: Cmax,brain/Cmax,p): 0.29
concentration at 0.5 h ([2]; male, Swiss-Webster, mouse, brain, intraperitoneal, 10 mg/kg, 0.5 h, 10 mg/kg, read-out: Conc (brain, NCA input)): 71.1 ng/mL
concentration at 1 h ([2]; male, Swiss-Webster, mouse, brain, intraperitoneal, 10 mg/kg, 1 h, 10 mg/kg, read-out: Conc (brain, NCA input)): 61.1 ng/mL
concentration at 2 h ([2]; male, Swiss-Webster, mouse, brain, intraperitoneal, 10 mg/kg, 2 h, 10 mg/kg, read-out: Conc (brain, NCA input)): 38.4 ng/mL
half-life ([2]; male, Swiss-Webster, mouse, brain, ip, 10 mg/kg, 10 mg kg^-1 i.p., mice, read-out: Terminal half-life in brain (converted)): ~9 days
concentration at 0.5 h ([2]; male, Swiss-Webster, mouse, brain, ip, 10 mg/kg, 0.5 h, 10 mg/kg i.p., read-out: mean (brain)): 71.1 ng/g
concentration at 1 h ([2]; male, Swiss-Webster, mouse, brain, ip, 10 mg/kg, 1 h, 10 mg/kg i.p., read-out: mean (brain)): 61.1 ng/g
concentration at 2 h ([2]; male, Swiss-Webster, mouse, brain, ip, 10 mg/kg, 2 h, 10 mg/kg i.p., individual mice, read-out: [drug],brain (free base equivalent)): 30 ng/g
concentration at 2 h ([2]; male, Swiss-Webster, mouse, brain, ip, 10 mg/kg, 2 h, 10 mg/kg i.p., <MRC substituted by MRC/2, read-out: mean (brain)): 38.4 ng/g
